Data taken from US8247552B2, “Analogs of dehydrophenylahistins and their therapeutic use” (Nereus Pharmaceuticals, Inc., priority 2002, dated 2012).
Values after ≈ are worked out from the molar mass of the structure shown. Where two headings read alike, the source gives them in different places.

Experiments:
[1] = system: PC-3 prostatic adenocarcinoma cells; assay: Tumor cytotoxicity assay, resazurin fluorescence, 48 h; type: cell-based; settings: Homo sapiens, Table 1
Procedure: 10× concentrated serial dilutions of the two compounds were prepared in appropriate culture medium for final concentrations ranging from 2.0×10^−5 M to 2.0×10^−10 M. Ten μl volumes of the 10× serial dilutions were added to the test wells in triplicate and the plates returned to the incubator for 48 hours.
Resazurin dye without cells was used to determine the background, which was subtracted from the data for all experimental wells. The data were analyzed using Prism software (GraphPad Software).
PC-3, a human prostate adenocarcinoma, was maintained in F12K complete medium (F12K medium supplemented with 10% FBS; 2 mM Glutamine; 1% HEPES; and Pen/Strep at 100 IU/ml and 100 μg/ml, respectively).
20 mM stock solutions of compounds were prepared in 100% DMSO and stored at −80° C. […] Ten μl volumes of the 10× serial dilutions were added to the test wells in triplicate and the plates returned to the incubator for 48 hours.

[2] = system: Jurkat cells (human T cell leukemia line); assay: DNA fragmentation (DNA laddering) by gel electrophoresis; type: cell-based
From the text: A late stage characteristic of apoptosis is internucleosomal DNA cleavage that results in a distinctive ladder pattern that can be visualized by gel electrophoresis.

[3] = system: Trichophyton rubrum; assay: Antifungal susceptibility testing (NCCLS M38-A), MIC/MFC; type: cell-based
Procedure: Specifically, disclosed compounds were evaluated alongside commercially available microtubulin inhibitors as well as recognized antifungal agents.
(§1) Microorganisms against which these compounds were tested included: Candida albicans, Candida glabrata, Aspergillus fumigatus, Trichophyton rubrum, Trichophyton mentagrophytes, Epidermophyton floccosum. With the exception of Candida glabrata (one isolate), two isolates of each species were tested.
The minimum lethal concentration (MLC) was determined by plating […] from the MIC concentration and each concentration above the MIC. […] When a MIC was obtained, a minimum fungicidal concentration (MFC) was determined to assess the fungistatic/fungicidal nature of the compound.

[4] = system: Trichophyton mentagrophytes; assay: as above; type: cell-based
Procedure: (§2) Specifically, disclosed compounds were evaluated alongside commercially available microtubulin inhibitors as well as recognized antifungal agents. […].
as §1
(§3) Drug concentrations were 0.03-16 μg/ml for the investigational compounds, 0.015-8 μg/ml for itraconazole and griseofulvin.
(§4) The minimum lethal concentration (MLC) was determined by plating […] from the MIC concentration and each concentration above the MIC. […] When a MIC was obtained, a minimum fungicidal concentration (MFC) was determined to assess the fungistatic/fungicidal nature of the compound. […] The compound is scored as fungistatic if the cells are able to resume growth and fungicidal if no regrowth is possible because the compound had killed the organisms.

[5] = system: Epidermophyton floccosum; assay: as above; type: cell-based; settings: Table 24, read-out: E. floccosum isolate #2 (column head empty, before MFC)
Procedure: as §2, §1, §3, §4

[6] = system: MES-SA/Dx5 (Taxol resistant) human uterine sarcoma; assay: Cytotoxicity / growth inhibition in multidrug resistant uterine sarcoma cells; type: cell-based; settings: for IC50: Table 13, III
Procedure: 1) Human Uterine Sarcoma Tumor Cell Line Pair: MES-SA (Taxol Sensitive) and MES-SA/Dx5 (Taxol Resistant).
HL-60 and HL-60/MX2 cells were both seeded at 5×10^4 cells/well in 90 μl complete media into 96 well plates on the day of compound addition. […] Ten μl volumes of the 10× serial dilutions were added to the test wells in triplicate and the plates returned to the incubator for 48 hours.
Resazurin dye in medium without cells was used to determine the background, which was subtracted from the data for all experimental wells.
The multidrug resistant MES-SA/Dx5 tumor cell line was derived from the human uterine sarcoma MES-SA tumor cell line and expresses elevated P-Glycoprotein (P-gp), an ATP dependent efflux pump. […] Paclitaxel, a known substrate of the P-gp pump was included as a control.

[7] = system: HL-60 human acute promyelocytic leukemia (Mitoxantrone-sensitive); assay: Cytotoxicity / growth inhibition in sensitive leukemia cells; type: cell-based; settings: Table 20, mean of two independent experiments, 48 hours
Procedure: (§6) HL-60 and HL-60/MX2 cells were both seeded at 5×10^4 cells/well in 90 μl complete media into 96 well plates on the day of compound addition. 20 mM stock solutions of the compounds were prepared in 100% DMSO and stored at −80° C. […] Ten μl volumes of the 10× serial dilutions were added to the test wells in triplicate and the plates returned to the incubator for 48 hours.

[8] = system: HL-60/MX-2 (Mitoxantrone-resistant); assay: Cytotoxicity / growth inhibition in resistant leukemia cells; type: cell-based, human
Procedure: as §6

[9] = system: HuVEC monolayer; assay: HuVEC monolayer permeability to FITC-Dextran; type: cell-based, human
Procedure: The enhanced permeability of HuVEC cells to a fluorescent-labeled dextran is used as a proxy assay for vascular collapse.
Human umbilical vein endothelial cells (HuVECs; Cambrex CC2519A) were maintained at subconfluent densities in EGM-2 (Cambrex) media. […] For monolayer permeability assays, HuVEC cells were seeded at 1×10^5 cells/ml in EGM-2 media on Fibronectin-coated 3.0 μm Fluoroblok inserts (Becton Dickinson) in 24-well plates. The plates were returned to the incubator for 4 days to allow the cells to reach confluency.
Stock solutions (20 mM) of the test compounds were prepared in 100% DMSO. 10× concentrated serial dilutions of the compounds were prepared in EGM-2. 10 μl volumes of the serial dilutions were added to the test inserts in duplicate resulting in final concentrations ranging from 2 μM to 2 nM.
The final concentration of FITC-Dextran was 1 mg/ml.

[10] = system: HuVEC cells; assay: Microtubule (tubulin) depolymerization, α-tubulin staining; settings: for microtubule depolymerization in HuVEC cells: 2 μM, thirty minutes exposure
Procedure: The plates were returned to the incubator for 2 days.
20 mM stock solutions of compounds were prepared in 100% DMSO and stored at −80° C. 400× concentrated dilutions of the compounds were prepared in 100% DMSO. 5 μl volumes of the dilutions were added to individual wells resulting in a final concentration of 20 nM. […] The plates were returned to the incubator for 30 minutes.
The cells were rinsed in dPBS before fixation in 10% (v/v) neutral buffered formalin for 10 minutes at room temperature. Following fixation, α-tubulin was visualized by indirect immunofluorescence. Specifically, the cells were permeabilized in 0.2% (v/v) triton X-100/dPBS for 10 minutes. The cells were washed prior to transferring the coverslips to a humidified chamber, the coverslips were blocked for two hours in antibody buffer [2% (w/v) BSA/0.1% (v/v) Tween 20/dPBS]. The coverslips were incubated with 50 μl of 0.1 μg/ml mouse α-tubulin (Molecular Probes) in antibody buffer for 1 hour before washing and incubation with 50 μl of 1 μg/ml goat anti-mouse FITC (Jackson ImmunoResearch Laboratories) for one hour in the dark. Finally, the cells were washed and treated with 2 μg/ml DAPI (Molecular Probes) for 10 minutes before rinsing in H2O and mounting with Vectashield (Vector Labs) mounting media. The cells were imaged using a 60× oil immersion objective on an upright microscope (Olympus BX51). The images were digitally captured using a CCD camera and Magnafire 2.0 software (Olympus). Post image processing was performed in Photoshop Elements 2.0 (Adobe) and in Microsoft Powerpoint.
Human umbilical vein endothelial cells (HuVECs; Cambrex CC2519A) were maintained at subconfluent densities in EGM-2 (Cambrex) media. […] The plates were returned to the incubator for 2 days.
Stock (20 mM) solutions of the test compounds were prepared in 100% DMSO. 400× concentrated dilutions of the compounds were prepared in 100% DMSO. 5 μl volumes of the dilutions were added to individual wells resulting in a final concentration of 200 nM. […] The plates were returned to the incubator for 30 minutes.
The cells were rinsed in dPBS before fixation in 10% (v/v) neutral buffered formalin for 10 minutes at room temperature. Following fixation, α-tubulin was visualized by indirect immunofluorescence. Specifically, the cells were permeabilized in 0.2% (v/v) triton X-100/dPBS for 10 minutes. The cells were washed prior to transferring the coverslips to a humidified chamber, the coverslips were blocked for two hours in antibody buffer (2% (w/v) BSA/0.1% (v/v) Tween 20/dPBS). The coverslips were incubated with 50 μl of 0.1 μg/ml mouse α-tubulin (Molecular Probes) in antibody buffer for 1 hour before washing and incubation with 50 μl of 1 μg/ml goat anti-mouse FITC (Jackson ImmunoResearch Laboratories) for one hour in the dark. Finally, the cells were washed and treated with 2 μg/ml DAPI (Molecular Probes) for 10 minutes before rinsing in H2O and mounting with Vectashield (Vector Labs) mounting media. The cells were imaged using a 60× oil immersion objective on an upright microscope (Olympus BX51). The images were digitally captured using a CCD camera and Magnafire 2.0 software (Olympus). Post image processing was performed in Photoshop Elements 2.0 (Adobe) and in Microsoft Powerpoint.

[11] = Physicochemical stability, Z to E migration under light; settings: visible light, normal room light
Procedure: The physicochemical stability is one of the unfavorable problems of dehydroPLH. In phenylahistin, since there is no additional olefin structure at the benzyl part, there is no such problem. […] In the cytotoxic assay, some of the compounds migrate to E-form during the incubation, although this migration probably equilibrates at the 1:1 ratio in the case of dehydroPLH. This migration can be controlled.

[12] = system: HT-29 human colon cells; assay: Tumor cytotoxicity / cell growth inhibition assay, resazurin fluorescence, 48 h; type: cell-based
[13] = Cytotoxicity, resazurin; type: cell-based; settings: human, CCD-27sk normal fibroblasts; Table 12; CCD-27sk Fibroblast
From the text: (§5) Cells were maintained at subconfluent densities in their respective culture media.

[14] = system: OVCAR-3 (human ovarian tumor); assay: Cytotoxicity, resazurin; type: cell-based; settings: Table 12, OVCAR-3 Ovary
From the text: as §5

[15] = system: poly(ADP-ribose) polymerase (PARP) in Jurkat cells; assay: Cleavage of poly(ADP-ribose) polymerase by western blotting; type: cell-based, human; settings: 100 nM, 10 hours after exposure
[16] = system: DU-145 human prostate tumor; assay: DU-145 Human Prostate Tumor Xenograft Model; type: in vivo, mice; settings: KPU-2 plus taxotere, treatment Days 20-27
Procedure: Selected novel compounds were administered as monotherapy via the intraperitoneal (i.p.) route at the doses indicated for the individual study; for the combination studies the selected reference chemotherapy agents were injected 15-30 min prior to the compound.
When the tumors reached ˜5 mm×5 mm (at about 13-17 days) the animals were matched into treatment and control groups. The remainder of the study proceeded as for the HT-29 model, using taxotere as the standard chemotherapy agent.
In this model unless otherwise noted for the individual study, test compounds were administered via the intraperitoneal route on Days 1, 3, 5, 8 and 11 (q3dx5); taxotere was administered intravenously on Days 1, 3 and 5 (q2dx3).

[17] = system: MCF-7 human breast tumor; assay: MCF-7 Human Breast Tumor Xenograft Model; type: in vivo, mice; settings: combination with taxotere
Procedure: Animals used were (exceptions are indicated for individual studies): female nude mice (nu/nu) between 5 and 6 weeks of age (˜20 g, Harlan); group size was 9-10 mice per group unless otherwise indicated.
Female nude mice (˜20 g) were implanted s.c. with 21-day release estrogen (0.25 mg) pellets 24 hours prior to the s.c. implantation with MCF-7 tumor fragments (harvested from s.c. tumors in nude mice hosts). The study then proceeded as described for the HT-29 model, using taxotere as the standard chemotherapy agent.
In this model unless otherwise noted for the individual study, the novel compounds were injected via the intraperitoneal route daily on Days 1-5, inclusive (qdx5); taxotere was administered intravenously on Days 1, 3 and 5 (qodx3).
The doses of the compounds were administered on Days 1, 2, 3, 4, and 7; Taxotere was administered on Days 1, 3 and 7.

[18] = system: MDA-231 human breast tumor; assay: MDA-231 Human Breast Tumor Orthotopic (mammary fat pad) Xenograft Model; type: in vivo, mice; settings: KPU-2 7.5 mg/kg ip q3dx5 with paclitaxel 16 mg/kg ip qdx5; three weeks
Procedure: The animals used were: female nude mice (nu/nu) (MDA-231 study) or B6D2F1 (B16-F10 studies) mice between 5 and 6 weeks of age (˜20 g, Harlan); group size was 10 mice per group unless otherwise indicated.
NPI compounds were administered as monotherapy via the intraperitoneal route at the doses indicated for the individual study; for the combination studies the selected reference chemotherapy agents were injected 15-30 min prior to the NPI compound.
Female nude mice were injected in the mammary fat pad with 2×10^6 MDA-231 cells harvested from in vitro cell culture. When the tumor size reached 5 mm×5 mm (about 14-28 days) the animals were matched into treatment and control groups. The study then proceeded as described for the HT-29 model, using paclitaxel as the standard chemotherapy agent.
In this model unless otherwise noted for the individual study, the test compounds were administered via the intraperitoneal route on Days 1, 4, 8, 11 and 15 (q3dx5); paclitaxel was administered via the intraperitoneal route on Days 1-5 (qdx5).
This model involves the placement of the human tumor tissue into the mouse mammary fat pad, a surrogate of the natural environment. In this manner the possibility of a positive effect due to a specific action on the subcutaneous vascular bed is avoided.

[19] = system: human prostate tumor cells; assay: Induction of apoptosis, morphological changes; type: cell-based
From the text: The characteristic signs of apoptotic cell death include cell membrane blebbing, disruption of nuclei, cell shrinkage and condensation and finally cell death, very distinctive from necrotic cell death. […] A similar finding was also clear in the treatment of HuVEC cells with KPU-2.

[20] = system: panel of 60 different kinases; settings: ATP 10 μM; four kinases
[21] = system: N202 mammary tumor vasculature; assay: Murine syngeneic pseudo-orthotopic breast cancer model, dorsal skinflap chamber, vascular targeting
From the text: A murine syngeneic “pseudo-orthotopic” breast cancer model was used to address these issues. […] To create the “pseudo-orthotopic milieu,” the coverslip of a dorsal skinflap chamber was removed and small pieces of mammary fatpad from donor mice were implanted into the chamber. On top of the fatpad graft, tumor spheroids containing N202 mammary tumor cells transduced with Histone (H2B)-green fluorescent protein (GFP) were applied. The use of H2B-GFP transduced cells allows for visualizing tumor growth and monitoring mitosis and apoptosis.
Fluorescence video microscopy allows for the relatively non-invasive study of tumor microcirculation in conscious mice.
Tumor area, blood flow rate, and vascular density within and surrounding the tumor were visualized. Real-time observations were recorded at various time-points using still photos and video microscopy.

[22] = system: P22 rat sarcoma tumor blood flow; assay: Blood flow in the P22 rat sarcoma model with 125I-IAP; type: in vivo; settings: 15 mg/kg IP
Procedure: In contrast, blood flow in non-tumor tissues was affected to a much lesser extent at 1 hour (see FIG. 35).

[23] = system: P22 rat sarcoma; assay: Tumor necrosis in the P22 rat sarcoma model; type: in vivo; settings: 7.5 and 15 mg/kg IP, 24 hours post-dose
From the text: “A dose-escalation study of the novel vascular-targeting agent, ZD6126, in patients with solid tumors,” Proc Am Soc Clin Oncol 2002; 21:abstract 438; each of which is hereby incorporated by reference in its entirety.

[24] = system: MCF7 cells (GFP-alpha-tubulin); assay: Microtubule dynamic instability in living MCF7 cells (time-lapse microscopy); type: cell-based, human; settings: concentrations effecting 25% or 50% of maximal mitotic block

C=CC(C)(C)c1[nH]cnc1/C=c1\[nH]c(=O)/c(=C/c2ccccc2)[nH]c1=O [KPU-1, Dehydrophenylahistin]
EC50 [1]: 5.4 nM | DNA laddering, potency compared with KPU-2 [2]: much less potent | potency versus T. rubrum [3]: significantly less potent than the other compounds | potency versus sensitive T. mentagrophytes isolate [4]: weaker but more comparable to the others

COC1=CC(=O)C[C@@H](C)[C@]12Oc1c(Cl)c(OC)cc(OC)c1C2=O [griseofulvin, Griseofulvin]
MFC [5]: 4 µg/mL (≈ 11.3 µM)

O=C1c2c(O)ccc(O)c2C(=O)c2c(NCCNCCO)ccc(NCCNCCO)c21 [mitoxantrone, Mitoxantrone]
reduced susceptibility of MES-SA/DX5 cell line ([6]; versus MES-SA): 20 fold | EC50 [7]: 42 nM | EC50 ([8]; Homo sapiens, HL60/MX2, Table 20, mean of two independent experiments, 48 hours): 1100 nM | loss of efficacy in the resistant HL-60/MX-2 cell line ([8]; versus HL-60, Example 10): 24 fold | times less active against resistant HL-60/MX2 cells ([8]; versus HL-60, Example 11): ~26 times

CC(=O)O[C@H]1C(=O)[C@@]2(C)[C@H]([C@H](OC(=O)c3ccccc3)[C@]3(O)C[C@H](OC(=O)[C@H](O)[C@@H](NC(=O)c4ccccc4)c4ccccc4)C(C)=C1C3(C)C)[C@]1(OC(C)=O)CO[C@@H]1C[C@@H]2O [Taxol]
potency in resistant MES-SA/DX5 versus sensitive MES-SA line [6]: virtually inactive | IC50 ([6]; cyclosporin A pretreatment, Study II, read-out: MES-SA/DX5 Resistant, CsA Pretreat, IC50 nM): 40 nM | IC50 ([6]; no cyclosporin A, Study I, II, read-out: MES-SA/DX5 Resistant, No CsA, IC50 nM): > 24000 nM | HuVEC monolayer permeability [9]: inactive | microtubule depolymerization in HuVEC cells [10]: did not induce microtubule depolymerization

C=CC(C)(C)c1[nH]cnc1/C=c1\[nH]c(=O)/c(=C/c2ccccc2)[nH]c1=O [dehydroPLH, dehydrophenylahistin]
Z to E migration [11]: Z to E migration frequently occurs

CC(C)(C)c1[nH]cnc1/C=c1\[nH]c(=O)/c(=C/c2ccccc2)[nH]c1=O [KPU-2, tBu-dehydrophenylahistin]
cytotoxic activity against HT-29 cells [12]: active in the low nanomolar range | cytotoxicity at 48 h [13]: 64.3% | IC50 [14]: > 20 nM | cleavage of PARP [15]: induced cleavage of PARP | apparent TGI of combination therapy [16]: > 58% | effect on estimated tumor growth with taxotere [17]: appeared to be the most effective | inhibition of tumor growth [18]: significant inhibition of tumor growth in the combination therapy group | antifungal potency compared with griseofulvin ([3]; dermatophyte isolates): equivalent in potency or in some cases more potent than griseofulvin | morphological changes of apoptosis [19]: induced the typical morphological changes associated with early stages of apoptosis | IC50 against kinases inhibited >50% in primary screen [20]: low micromolar range | microtubule depolymerization in HuVEC cells [10]: induced microtubule depolymerization

CC(C)(C)c1[nH]cnc1/C=c1\[nH]c(=O)/c(=C/c2ccccc2)[nH]c1=O [KPU-02]
tolerability ([21]; i.v. infusion 5-10 mg/kg): well tolerated | effect on tumor vasculature ([21]; single i.v. treatment): rapid collapse of the central vasculature | tumor blood flow, % of vehicle ([22]; 1 hour after administration): 23% | tumor blood flow, % vehicle ([22]; 24 hours): 59% | tumor necrosis [23]: dose-dependent tumor necrosis | effect on MT dynamic instability [24]: did not have a measurable effect on MT dynamic instability | tubulin depolymerization in HuVEC cells ([10]; 200 nM, 30 min): rapidly induce tubulin depolymerization
